# Source: patent USRE34284E, “Method for assaying proteolytic enzymes” (bioMerieux Vitek, Inc., priority 1992, dated 1993)
# Values joined by “and” are separate entries in the source; they are usually repeats but may differ in a detail not shown here. Identical values can stand only once. Like-named read-outs stand apart in the source and are kept apart here.
# What was measured:
# trypsin [1] = test: Continuous assay for trypsin, hydrolysis of Z-GLY-PRO-ARG-MBTH (Example 16); assay type: biochemical; settings: 1 μg trypsin, 0.14M Tris pH 7.8, 0.0131M DMAB, 0.002M potassium ferricyanide, 3% dimethylformamide; substrate 1.74×10^-3, 5.8×10^-4 and 3.9×10^-4 M in triplicate; 590 nm, 5 minutes
# Procedure: Saturation kinetics for N-(N-benzyloxycarbonyl)glycyl-L-prolyl-L-arginyl 3-methyl-2-benzothiazolinone hydrazone with trypsin).
# A continuous assay for trypsin was performed, i.e., the oxidizing and coupling reagents for color development were included with the substrate in the reaction mixture so that color development may be monitored on a continuous basis with time. In this example the dye precursor is developed to a dye without destroying the enzymatic activity of the enzyme. The reaction was initiated by the addition of 0.1 mL of enzyme (10 μg/mL) to 0.9 mL of buffer solution containing substrate (Z-GLY-PRO-ARG-MBTH) and color developing reagents. The final concentrations in the cuvette were 1 μg trypsin +0.14M Tris buffer, pH 7.8 +0.0131M 3-dimethylamino benzoic acid (DMAB) +0.002M potassium ferricyanide +3% dimethylformamide +substrate. Substrate concentrations of 1.74×10^-3 M, 5.8×10^-4 M and 3.9×10^-4 M were assayed in triplicate. The increases in absorbance at 590 nm were monitored continuously for 5 minutes and the initial rates determined. Using the molar absorptivity of 57,000 for the chromogen produced (MBTH-DMAB), the average rate of hydrolysis was calculated to be 4.43±0.1×10^-6 mol min^-1.
# trypsin [2] = test: Kinetic constants for trypsin-catalyzed hydrolysis of BOC-ARG-MBTH, continuous assay (Example 18); assay type: biochemical; settings: for kc (kinetic catalytic constant) / Km: tris buffer pH 7.8, 590 nm; for Km: read-out: Km (binding constant)
# Procedure: Determination of the Kinetic Constants for the Trypsin Catalyzed Hydrolysis of N-(N-t-butoxycarbonyl)-L-Arginyl 3-methyl benzothiazolinone hydrazone (continuous assay)).
# In a one cm. cuvette were mixed 3.0 mL of 0.02M tris buffer, pH 7.8, containing 0.02M 3-dimethylamino benzoic acid (DMAB) 0.1 mL of 0.065M potassium ferricyanide, and 0.1 mL of substrate (BOC-ARG-MBTH). The reaction was initiated by the addition of 1 0.1 mL of trypsin (2.33×10^-4 M in 0.1M pyrophosphate buffer, pH 8.3). Eight concentrations of substrate, from 9.98×10^-4 M to 7.8×10^-6 M, were assayed in triplicate. The increase in absorption at 590 nm was monitored continuously and the initial rates were determined. Under the conditions of the assay, a molar absorptivity of 57,000 was used to determine the concentration of the chromogen (MBTH-DMAB) produced by the hydrolysis of substrate. Table I contains the date used to determine the binding and kinetic constants (Km, kc).
# [3] = Woolf-Augustinssen-Hofstee method
compound,measurement,setting,value
"Cn1c(=NNC(=O)[C@H](CCCNC(=N)N)NC(=O)[C@@H]2CCCN2C(=O)CNC(=O)OCc2ccccc2)sc2ccccc21 [Z-GLY-PRO-ARG-MBTH, N-(N-benzyloxycarbonyl)glycyl-L-prolyl-L-arginyl 3-methyl-2-benzothiazolinone hydrazone]",average rate of hydrolysis,trypsin [1],4.43±0.1×10^-6 mol min^-1
"Cn1c(=NNC(=O)[C@H](CCCNC(=N)N)NC(=O)OC(C)(C)C)sc2ccccc21 [BOC-ARG-MBTH, N-(N-t-butoxycarbonyl)-L-Arginyl 3-methyl benzothiazolinone hydrazone]",I/V,trypsin [2]; I/S 100 M^-1,0.000565 min/M and 0.000528 min/M and 0.000625 min/M
same,V/S,trypsin [2]; I/S 100 M^-1,0.00177 min⁻¹ and 0.0019 min⁻¹ and 0.0016 min⁻¹
same,I/V,trypsin [2]; I/S 200 M^-1,0.000699 min/M and 0.000742 min/M
same,V/S,trypsin [2]; I/S 200 M^-1,0.00287 min⁻¹ and 0.0027 min⁻¹
same,I/V,trypsin [2]; I/S 401 M^-1,0.000766 min/M and 0.00088 min/M and 0.000819 min/M
same,V/S,trypsin [2]; I/S 401 M^-1,0.00523 min⁻¹ and 0.00456 min⁻¹ and 0.00489 min⁻¹
same,I/V,trypsin [2]; I/S 802 M^-1,0.00108 min/M and 0.001188 min/M and 0.001033 min/M
same,V/S,trypsin [2]; I/S 802 M^-1,0.00743 min⁻¹ and 0.00675 min⁻¹ and 0.00776 min⁻¹
same,I/V,trypsin [2]; I/S 1603 M^-1,0.001697 min/M and 0.001607 min/M and 0.001827 min/M
same,V/S,trypsin [2]; I/S 1603 M^-1,0.00945 min⁻¹ and 0.00877 min⁻¹
same,I/V,trypsin [2]; I/S 2305 M^-1,0.002969 min/M and 0.003393 min/M
same,V/S,trypsin [2]; I/S 2305 M^-1,0.01808 min⁻¹ and 0.0108 min⁻¹ and 0.00945 min⁻¹
same,I/V,trypsin [2]; I/S 6413 M^-1,0.005056 min/M and 0.00528 min/M
same,V/S,trypsin [2]; I/S 6413 M^-1,0.01268 min⁻¹ and 0.01215 min⁻¹
same,I/V,trypsin [2]; I/S 12826 M^-1,0.009901 min/M and 0.009506 min/M
same,V/S,trypsin [2]; I/S 12826 M^-1,0.01295 min⁻¹ and 0.01349 min⁻¹
same,kc (kinetic catalytic constant),trypsin [2]; Lineweaver-Burk plot,0.0436 s⁻¹
same,Km,trypsin [2]; Lineweaver-Burk plot,1410 µM
same,kc (kinetic catalytic constant),trypsin [2]; [3],0.0428 s⁻¹
same,Km,trypsin [2]; [3],1290 µM
